{
  "source": "patent US20150105252A1",
  "about": "“SUBSTITUTED PYRAZOLES AS HERBICIDES” (E I DU PONT DE NEMOURS AND COMPANY, priority 2013, published 2015)",
  "key": {"[1]": {"system": "nutsedge, yellow", "experiment": "Test C preemergence", "assay_type": "in vivo, Cyperus esculentus", "summary_of_the_method": "(§1)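 Visual control ratings on a 0–100 scale (100 = complete control) made against untreated controls after 13 to 15 days in greenhouse. Compounds applied in surfactant-containing solvent mixture, either preemergence to loam/sand-sown seeds or postemergence to 1- to 4-leaf plants (2–18 cm) in peat medium.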"}, "[2]": {"system": "wheat", "experiment": "Test C preemergence", "assay_type": "in vivo, Triticum aestivum", "summary_of_the_method": "as §1"}, "[3]": {"system": "galium", "experiment": "Test C preemergence", "assay_type": "in vivo, Galium aparine", "summary_of_the_method": "as §1"}, "[4]": {"system": "ducksalad", "experiment": "Test B flood", "assay_type": "in vivo, Heteranthera limosa", "conditions": "250 g ai/ha, visual rating on 0 to 100 scale (0 no effect, 100 complete control), 13 to 15 days", "summary_of_the_method": "(§2)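 2-leaf plants; pots flooded 3 cm over soil; compound added to paddy water, depth kept constant. Greenhouse 13–15 d. Visual rating vs controls, 0–100 scale (100 = complete control); dash = no result.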"}, "[5]": {"system": "oilseed rape", "experiment": "Test C preemergence", "assay_type": "in vivo, Brassica napus", "summary_of_the_method": "as §1"}, "[6]": {"system": "pigweed", "experiment": "Test A postemergence", "assay_type": "in vivo, Amaranthus retroflexus", "conditions": "Postemergence", "summary_of_the_method": "(§3)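 After sowing in a sand–loam mix, pots received compound preemergence by directed soil spray, or postemergence once plants reached the one- to two-leaf stage (2–10 cm). Formulation contained surfactant in a non-phytotoxic solvent. Injury was scored visually after ~10 greenhouse days, 0–100 scale.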"}, "[7]": {"system": "corn", "experiment": "Test A preemergence", "assay_type": "in vivo, Zea mays", "conditions": "preemergence", "summary_of_the_method": "as §3"}, "[8]": {"system": "corn", "experiment": "Test C preemergence", "assay_type": "in vivo, Zea mays", "summary_of_the_method": "as §1"}, "[9]": {"system": "sedge, umbrella", "experiment": "Test B flood", "assay_type": "in vivo, Cyperus difformis", "conditions": "250 g ai/ha, visual rating on 0 to 100 scale (0 no effect, 100 complete control), 13 to 15 days", "summary_of_the_method": "as §2"}, "[10]": {"system": "wheat", "experiment": "Test A postemergence", "assay_type": "in vivo, Triticum aestivum", "conditions": "Postemergence", "summary_of_the_method": "as §3"}, "[11]": {"system": "foxtail, giant", "experiment": "Test A preemergence", "assay_type": "in vivo, Setaria faberii", "conditions": "preemergence", "summary_of_the_method": "as §3"}, "[12]": {"system": "foxtail, giant", "experiment": "Test C preemergence", "assay_type": "in vivo, Setaria faberii", "summary_of_the_method": "as §1"}, "[13]": {"system": "velvetleaf", "experiment": "Test A preemergence", "assay_type": "in vivo, Abutilon theophrasti", "conditions": "preemergence, 125 g ai/ha, visual injury approx. 10 days after treatment", "summary_of_the_method": "as §3"}, "[14]": {"system": "crabgrass, large", "experiment": "Test A postemergence", "assay_type": "in vivo, Digitaria sanguinalis", "conditions": "Postemergence", "summary_of_the_method": "as §3"}, "[15]": {"system": "morningglory", "experiment": "Test A preemergence", "assay_type": "in vivo, Ipomoea spp.", "conditions": "preemergence, 125 g ai/ha, visual injury approx. 10 days after treatment", "summary_of_the_method": "as §3"}, "[16]": {"conditions": "Preemergence, rate head not shown (block before 16 g ai/ha), scale 0 to 100"}, "[17]": {"conditions": "preemergence, 62 g ai/ha, scale 0 to 100 (0 no effect, 100 complete control), 13 to 15 days"}, "[18]": {"conditions": "preemergence, 125 g ai/ha, 13 to 15 days, scale 0 to 100, 0 = no effect, 100 = complete control"}, "[19]": {"conditions": "preemergence, 250 g ai/ha, scale 0 to 100, 0 is no effect, 100 is complete control"}, "[20]": {"conditions": "125 g ai/ha, 0 to 100 scale, 0 no effect, 100 complete control"}, "[21]": {"conditions": "500 g ai/ha, 0 to 100 scale (0 no effect, 100 complete control)"}, "[22]": {"conditions": "125 g ai/ha, visual injury approx. 10 days after treatment"}, "[23]": {"conditions": "500 g ai/ha, visual injury after approx. 10 days, 0 to 100 scale (0 no effect, 100 complete control)"}},
  "data": [
    {"compound": "CCc1cc(C(=O)NC2CC2)nn1Cc1cc(C(F)(F)C(F)(F)F)nn1C", "note": "[Compound 226]", "values": [
      {"measurement": "Plant response rating, Nutsedge, Yellow", "setting": "[1]; [16]", "value": 0},
      {"measurement": "Nutsedge, Yellow plant response rating", "setting": "[1]; [17]", "value": 5},
      {"measurement": "Plant response rating, Nutsedge, Yellow", "setting": "[1]; [18]", "value": 5},
      {"measurement": "Nutsedge, Yellow plant response rating", "setting": "[1]; [19]", "value": 20},
      {"measurement": "Plant response rating, Wheat", "setting": "[2]; [16]", "value": 15},
      {"measurement": "Wheat plant response rating", "setting": "[2]; [17]", "value": 0},
      {"measurement": "Plant response rating, Wheat", "setting": "[2]; [18]", "value": 0},
      {"measurement": "Wheat plant response rating", "setting": "[2]; [19]", "value": 10},
      {"measurement": "Plant response rating, Galium", "setting": "[3]; [16]", "value": 0},
      {"measurement": "Galium plant response rating", "setting": "[3]; [17]", "value": 90},
      {"measurement": "Plant response rating, Galium", "setting": "[3]; [18]", "value": 80},
      {"measurement": "Galium plant response rating", "setting": "[3]; [19]", "value": 90},
      {"measurement": "Plant response rating, Ducksalad", "setting": "[4]", "value": 90},
      {"measurement": "Plant response rating, Oilseed Rape", "setting": "[5]; [16]", "value": 30},
      {"measurement": "Oilseed Rape plant response rating", "setting": "[5]; [17]", "value": 85},
      {"measurement": "Plant response rating, Oilseed Rape", "setting": "[5]; [18]", "value": 100},
      {"measurement": "Oilseed Rape plant response rating", "setting": "[5]; [19]", "value": 95},
      {"measurement": "Pigweed plant response rating", "setting": "[6]; [20]", "value": 100},
      {"measurement": "Pigweed plant response rating", "setting": "[6]; [21]", "value": 100},
      {"measurement": "Corn plant response rating (0 to 100 scale)", "setting": "[7]; [22]", "value": 30},
      {"measurement": "Corn plant response rating", "setting": "[7]; [23]", "value": 50},
      {"measurement": "Plant response rating, Corn", "setting": "[8]; Preemergence, rate head not shown (block before 16 g ai/ha), scale 0 to 100, 100 is complete control", "value": 10},
      {"measurement": "Corn plant response rating", "setting": "[8]; [17]", "value": 15},
      {"measurement": "Plant response rating, Corn", "setting": "[8]; [18]", "value": 30},
      {"measurement": "Corn plant response rating", "setting": "[8]; [19]", "value": 70},
      {"measurement": "Plant response rating, Sedge, Umbrella", "setting": "[9]", "value": 90},
      {"measurement": "Wheat plant response rating", "setting": "[10]; [20]", "value": 60},
      {"measurement": "Wheat plant response rating", "setting": "[10]; [21]", "value": 90},
      {"measurement": "Foxtail, Giant plant response rating (0 to 100 scale)", "setting": "[11]; [22]", "value": 100},
      {"measurement": "Foxtail, Giant plant response rating", "setting": "[11]; [23]", "value": 100},
      {"measurement": "Plant response rating, Foxtail, Giant", "setting": "[12]; [16]", "value": 80},
      {"measurement": "Foxtail, Giant plant response rating", "setting": "[12]; [17]", "value": 90},
      {"measurement": "Plant response rating, Foxtail, Giant", "setting": "[12]; [18]", "value": 100},
      {"measurement": "Foxtail, Giant plant response rating", "setting": "[12]; [19]", "value": 100},
      {"measurement": "Velvetleaf plant response rating (0 to 100 scale)", "setting": "[13]", "value": 60},
      {"measurement": "Crabgrass, Large plant response rating", "setting": "[14]; [20]", "value": 70},
      {"measurement": "Crabgrass, Large plant response rating", "setting": "[14]; [21]", "value": 90},
      {"measurement": "Morningglory plant response rating (0 to 100 scale)", "setting": "[15]", "value": 100}
    ]}
  ]
}
